From patent US6984640B1, “Antiparasitic artemisinin derivatives (endoperoxides)” (Bayer Aktiengesellschaft, priority 1998, dated 2006)

Columns and labels:
Format in all cases: cell-based
[1] = test system: Plasmodium falciparum D6 strain (chloroquine sensitive); assay: In vitro screening against Plasmodium falciparum, 3H-hypoxanthine incorporation, D6 strain; details: 66 hours incubation
Source text: (§1) Two parasite strains—W2 resistant to chloroquine, and D6 sensitive to chloroquine but resistant to mefloquine were used. In Table IV below, the best compounds should show no cross resistance between the two strains.
(§2) The assay relies on incorporation of radiolabelled hypoxanthine by the parasite and inhibition of incorporation is attributed to activity of known or candidate antimalarial drugs. For each assay, proven antimalarials such as chloroquine, mefloquine, quinine, artemisinin and pyrimethamine were used as controls. The incubation period was 66 hours, and the starting parasitemia was 0.2% with 1% hematocrit. The medium was an RPMI-1640 culture with no folate or p-aminobenzoic acid. Albumax rather than 10% normal heat inactivated human plasma was used as, with Albumax, less protein binding is observed, and compounds elicit slightly higher activities in this model. If a compound was submitted with no prior knowledge of activity, it was dissolved directly in dimethyl sulphoxide (DMSO), and diluted 400 fold with complete culture medium. The unknown compound was started at a maximum concentration of 50,000 ng ml^−1 and sequentially diluted 2-fold for 11 times to give a concentration range of […]. These dilutions were performed automatically by a Biomek 1000 Liquid Handling System in 96-well microtiter plates. The diluted drugs were then transferred to test plates, 200 μl of parasitized erythrocytes were added, and incubated at 37° C. in a controlled environment of 5% CO2, 5% O2 and 90% N2. After 42 hours, 25 μl of ^3H-hypoxanthine was added, and the plates incubated for an additional 24 hours. After 66 hours, the plates were frozen at −70° C. to lyse the red cells, and then thawed and harvested onto glass fiber filter mats in a 96-well harvester. The filter mats were then counted in a scintillation counter. For each drug, the concentration response profile was determined and 50%, 90% and 10% inhibitory concentrations (IC50 IC90 and IC10) were determined by a non-linear logistic dose response analysis program.
(§3) A prescreen format can be used wherein a 3-dilution assay may be used to determine activity at high medium or low concentrations. The concentrations were selected as 50,000, 500 and 50 ng ml^−1. These were performed in duplicate on a 96-well format plate with 14 test compounds and one known (standard) compound per plate. The system was automated with a Biomek diluter for mixing and diluting the drugs, and adding drugs and parasites to a test plate. In the prescreen format, if the ANALYSIS FIELD (AP) has a “<”, then the compound was “very active” and the IC values are most likely to be below the last dilution value (in nanograms/ml), which is listed next to AF. In most cases, these compounds were run again at lower starting concentration to determine the true IC value. If the AF has a “>”, then the IC value is greater than the prescreen dilution value; thus “AF>250” means that the IC value is greater than 250 ng ml^−1 and no further screening is carried out. In such cases, values of 0.00 are entered for IC values.

[2] = test system: Plasmodium falciparum W2 strain (chloroquine resistant); assay: In vitro screening against Plasmodium falciparum, 3H-hypoxanthine incorporation, W2 strain; details: for In vitro activity: (IC10) / In vitro activity: IC50 / In vitro activity: IC90: 66 hours incubation
Source text: as §1, §2, §3

Eimeria tenella = assay: Screening against Eimeria tenella cell cultures in vitro (chick kidney cells); design: key: 3 = very active no intact parasites/well; 2 = active 1-6 parasites per well; 1 = weakly active up to 1 intact schizont/optical field of vision; 0 = inactive >1 intact schizont/optical field of vision; T = cytotoxic host cells are dead; details: day 5 post infection
Method: Cells from kidneys of 19 day old chicks are cultured as monolayers in 96-well plates (Falcon 3872) in a medium of Hanks lactalbumine hydrolysate, 5% fetal calf serum, 1% glutamine and 1% non-essential amino acids. After two days at 42° C. under 5% CO2, the culture was infected with excised sporozoites of Eimeria tenella at about […] per well. Test compounds were dissolved in DKSO and diluted with culture medium to a maximum end concentration of 10 μg ml^−1. The dilution steps were 1:10. On day 5 post infection, the cultures were evaluated under a microscope at 100-fold magnification and the condition of the host cells and the amount of intact schizonts and free merozoites was determined.

Neospora caninum = assay: Screening against Neospora caninum cell cultures in vitro (VERO or ED host cells); design: key: 0 = no effect monolayer completely destroyed; 1 = weak effect monolayer partly destroyed, parasite clumps can be seen; 2 = full effect monolayer intact, no tachyzoites observable; T = cytotoxic cells are dead, lysed; details: microscopic evaluation 4 days after treatment
Method: Screening was conducted in 96-well plates (Falcon 3872). A monolayer of host cells (VERO or ED) were placed on a cell culture plate. Non-infected mono-layers of cells were cultured in two 50 ml tissue culture bottles ([…] cell culture area). The cell layer was detached with trypsin-EDTA (5 ml. Gibco 45300-019) in a CO2-culture cupboard at 37° C. After 10 minutes, most of the cells were detached. The cells were transferred with a 5 ml pipette into a 50 ml centrifuge tube (Greiner, B769331) containing about 1 ml warmed fetal calf serum. After centrifugation for 5 minutes at 1500 rpm (Varifuge 3.0, Heraeus), the liquid was removed and the cell pellet suspended in RPMI medium (100 ml, 95% RPMI 1640, 2% FCS, 1% L-glutamine, 1% sodium hydrogen carbonate, 1% penicillin/streptomycin). The cell suspension was pipetted into six 96-well plates at 150 μl per well. The coated cell culture plates were placed in an incubation cupboard at 37° C. under 5% CO2 for 24 hours. The cells were then infected with Neospora caninum tachyzoites at a concentration of 48,000 tachyzoites per well. This was followed by incubation at 37° C. under 5% CO2 for 24 hours.
The test compounds (0.5-1.5 mg) were weighed into 1.5 ml eppendorf vessels and dissolved in 1 ml dimethyl sulphoxide, corresponding to a dilution of about 1×10^−3 g ml^−1. The medium used for further dilution consisted of 87% RPMI 1640, 10% FCS, 1% L-glutamine, 1% sodium hydrogen carbonate, 1% penicillin/streptomycin. In the first screening, concentrations of […], […] and 10^−7 g ml^−1 were used. The diluted preparations were then transferred to the cell culture plates at a volume of 150 μl per well after 24 hour infection with Neospora caninum. For the first row, untreated medium was used; this row contained infected and uninfected cells as controls. The cell plate was incubated at 37° C. under 5% CO2 for 5 days. Microscopic evaluation was conducted 4 days after treatment and 5 days after infection at a magnification of 25×10 in an inverse microscope according to the following evaluation scheme.

| SMILES | In vitro activity: (IC10) [1] [ng/mL] | In vitro activity: IC50 [1] [ng/mL] | In vitro activity: IC90 [1] [ng/mL] | In vitro activity: (IC10) [2] [ng/mL] | In vitro activity: IC50 [2] [ng/mL] | In vitro activity: IC90 [2] [ng/mL] | Effectiveness rating against Eimeria tenella (Eimeria tenella; Dose 10^−5 g/ml) | Effectiveness rating against Eimeria tenella (Eimeria tenella; Dose 10^−6 g/ml) | Effectiveness rating against Eimeria tenella (Eimeria tenella; Dose 10^−7 g/ml) | Evaluation of effect against Neospora caninum (Neospora caninum; Dose 10^−5 g/ml) | Effectiveness rating against Eimeria tenella (Eimeria tenella; Dose 10^−8 g/ml) | Evaluation of effect against Neospora caninum (Neospora caninum; Dose 10^−6 g/ml) | Evaluation of effect against Neospora caninum (Neospora caninum; Dose 10^−7 g/ml) | Evaluation of effect against Neospora caninum (Neospora caninum; Dose 10^−8 g/ml) | ANALYSIS FIELD (AF): bound on the IC values in prescreen format ([2]; prescreen 3-dilution assay, 0.00 entered for IC values) |
| --- | --- | --- | --- | --- | --- | --- | --- | --- | --- | --- | --- | --- | --- | --- | --- |
| COc1cc(OC)c(C2OC3OC4(C)CCC5C(C)CCC(C2C)C35OO4)c(OC)c1 (mixture of isomers) [Example 12] | 0.35 | 0.77 | 1.70 | 0.47 | 0.78 | 1.32 |  |  |  |  |  |  |  |  |  |
| CC1CCC2[C@@H](C)C(=O)OC3O[C@]4(C)CCC1C32OO4 (stereo partly shown) [Artemisinin, artemisinin] |  |  |  |  |  |  | 2 (2 = active 1-6 parasites per well) | 1 (1 = weakly active up to 1 intact schizont/optical field of vision) | 0 (0 = inactive >1 intact schizont/optical field of vision) | 0 |  |  |  |  |  |
| CC1CCC2C(C)C(F)OC3OC4(C)CCC1C32OO4 (stereo not drawn) [Example 1, 10β-fluoro-10-deoxo-10-dihydroartemisinin] |  | 0.74 | 1.36 |  | 0.69 | 0.98 |  |  |  |  |  |  |  |  |  |
| CC1CCC2C(C)C(c3ccccc3)OC3OC4(C)CCC1C32OO4 (stereo not drawn) [Example 2, 10β-phenyl-10-deoxo-10-dihydroartemisinin] | 0.53 | 0.73 | 0.99 | 0.19 | 0.31 | 0.52 | 2 (2 = active 1-6 parasites per well) | 2 (2 = active 1-6 parasites per well) | 1 (1 = weakly active up to 1 intact schizont/optical field of vision) | 1 | 0 (0 = inactive >1 intact schizont/optical field of vision) | 1 | 0 |  |  |
| COc1ccc(C2O[C@@H]3O[C@@]4(C)CC[C@H]5[C@H](C)CC[C@@H]([C@H]2C)[C@@]35OO4)c(OC)c1 (stereo partly shown) [Example 4, 10-(2′,4′-dimethoxyphenyl)-10-deoxo-10-dihydroartemisinin] | 0.52 | 1.05 | 2.10 | 0.40 | 0.84 | 1.74 |  |  |  |  |  |  |  |  |  |
| CC1CCC2C(C)C(Nc3ccccc3)OC3OC4(C)CCC1C32OO4 (stereo not shown) [Example 15] | 0.48 | 0.61 | 0.78 | 0.52 | 0.66 | 0.84 | 2 (2 = active 1-6 parasites per well) | 2 (2 = active 1-6 parasites per well) | 1 (1 = weakly active up to 1 intact schizont/optical field of vision) |  | 0 (0 = inactive >1 intact schizont/optical field of vision) | 1 | 1 | 0 |  |
| CC1CCC2C(C)C(Nc3ccc(F)cc3)OC3OC4(C)CCC1C32OO4 (stereo not shown) [Example 16] | 0.48 | 0.61 | 0.78 | 0.49 | 0.64 | 0.84 |  |  |  |  |  |  |  |  |  |
| CC1CCC2C(C)C(NCc3ccccc3)OC3OC4(C)CCC1C32OO4 (stereo not shown) [Example 21] | 0.79 | 1.77 | 3.96 |  |  |  |  | 0 (0 = inactive >1 intact schizont/optical field of vision) |  | 2 |  | 0 |  |  |  |
| CCN(CC)C1OC2OC3(C)CCC4C(C)CCC(C1C)C24OO3 (stereo not shown) [Example 26] | 5.05 | 9.05 | 16.24 |  |  |  |  |  |  |  |  |  |  |  | 0.00; 0.00 AF < 4 ng/ml |
| CC(NC1OC2OC3(C)CCC4C(C)CCC(C1C)C24OO3)c1ccccc1 (stereo not shown) [Example 30] | 6.74 | 11.20 | 18.61 |  |  |  | T | 2 (2 = active 1-6 parasites per well) | 0 (0 = inactive >1 intact schizont/optical field of vision) | 1 |  | 0 |  |  |  |
| CC1CCC2C(C)C(c3ccc(Br)cc3)OC3OC4(C)CCC1C32OO4 (stereo not shown) [Example 38] | 0.22 | 0.90 | 3.69 | 0.55 | 1.23 | 2.76 |  |  |  |  |  |  |  |  |  |
| COc1cc(OC)c(C2OC3OC4(C)CCC5C(C)CCC(C2C)C35OO4)c(OC)c1 (stereo not shown) [Example 44] | 0.29 | 0.69 | 1.67 | 0.13 | 0.3318 | 0.8168 |  |  |  |  |  |  |  |  |  |
